Common to all, as to assay type: in vivo
For test [1], the system named is human ovarian cancer cells TOV-21G. In words: Anti-tumor test in mice transplanted subcutaneously with tumor (TOV-21G). The note with it: TOV-21G s.c. in mice. As to the method: (§1) Human ovarian cancer cell lines OC-10-JCK, OC-11-JCK, and TOGY-18, and a human breast cancer cell line MC-19-JCK were obtained from Central Institute for Experimental Animals. Cryopreserved tumor pieces were thawed, and then OC-10-JCK, OC-11-JCK, and MC-19-JCK were transplanted subcutaneously to SCID mice, while TOGY-18 was transplanted subcutaneously to nude mice. After the tumors were grown, the tumors were removed and cut into tumor pieces. The tumor pieces were transplanted subcutaneously to SCID mice or nude mice with trocars. The tumors were maintained by repeated transplantation in the same manner as described above to prepare tumors to be transplanted. Human ovarian cancer cell lines ES-2, SK-OV-3, OV-90, and TOV-21G, and a human lung cancer cell line NCI-H1975 were obtained from American Type Culture Collection (ATCC). The SK-OV-3 and NCI-H1975 cell lines were grown in recommended culture media, of which about 1×10^7 cells were suspended into HBSS and then injected subcutaneously to SCID mice. After the cells formed tumors, the tumors were removed and cut into tumor pieces. The tumor pieces were transplanted subcutaneously to SCID mice with trocars. The tumors were maintained by repeated transplantation in the same manner as described above to prepare tumors to be transplanted. […]

Test [2] concerns human ovarian cancer cells OV-90. The experiment in a line: Anti-tumor test in mice transplanted subcutaneously with tumor (OV-90). The note with it: OV-90 s.c. in mice. How it is done: as §1
For test [3], the system named is human ovarian cancer cells TOGY-18. In words: Anti-tumor test in mice transplanted subcutaneously with tumor (TOGY-18). The note with it: TOGY-18 s.c. in mice; 40 mg/kg tail vein three times at 4 day intervals. How it is done: as §1
Test [4] concerns human ovarian cancer cells 2008. In words: Anti-tumor test in mice transplanted subcutaneously with tumor (2008). The note with it: 2008 s.c. in mice. As to the method:
as §1

Test [5] has as its system human ovarian cancer cells SHIN-3. In words: Anti-tumor test in mice transplanted subcutaneously with tumor (SHIN-3). The note with it: SHIN-3 s.c. in mice. How it is done: as §1
Setting [6] is: 40 mg/kg tail vein three times at 4 day intervals.

Entries after “also recorded” stand apart in the source; their conditions may differ.

As for `CC(C)c1cc(-c2n[nH]c(=O)n2-c2ccc(CN3CCN(C)CC3)cc2)c(O)cc1O` [A-1, 5-(2,4-dihydroxy-5-isopropyl-phenyl)-4-[4-(4-methyl-piperazin-1-ylmethyl)-phenyl]-2,4-dihydro-[1,2,4]triazol-3-one], the “anti-tumor effect (in words)” value in test [1] is listed as “relatively highly effective”; in test [2], “relatively highly effective”; in test [4], “lowly effective”; in test [5], “hardly effective; also recorded: lowly effective”. The “T/C % (lowest value from the beginning to the 21st day of administration)” value in test [1] (setting [6]) is 25.0%; in test [2] (setting [6]), 30.4%; in test [3], 45.2%; in test [4] (setting [6]), 51.7%; in test [5] (setting [6]), 78.1%.

(Values after patent US20160313301A1, “METHOD FOR PREDICTING ANTITUMOR EFFICACY OF HSP90 INHIBITOR IN CANCER TREATMENT” (NIPPON KAYAKU KABUSHIKI KAISHA, priority 2013, published 2016).)
